Measured values published in US10662183B2, “Inhibitors of myocardin-related transcription factor and serum response factor (MRTF/SRF)-mediated gene transcription and methods for use of the same” (THE REGENTS OF THE UNIVERSITY OF MICHIGAN, priority 2014, dated 2020).

Test system: SRE.L-firefly luciferase reporter (Rho/MKL1 pathway) in PC-3 prostate cancer cells
Test: SRE.L-luciferase reporter assay
Format: cell-based
Conditions: 19 h, PC-3 cells transfected with Gα12Q231L, SRE.L and pRL-TK reporters; compound 19 hrs
Protocol: Seed PC-3 prostate cancer cells (40,000 cells/well) were grown in 96-well plates in 10% FBS containing DMEM medium. Cells were transiently transfected with the Ga12QL activator of the Rho/MKL1 pathway, along with the SRE.L-firefly luciferase reporter construct for 6 hours. Additionally, cells were co-transfected with the TK-Renilla luciferase reporter as an indicator of non-specific compound effects. Various concentrations of the compounds disclosed herein were added to the 96-well plates. Plates were incubated for 19 hours at 37° C. and 5% C02 in 0.5% FBS containing DMEM medium. Cells were lysed with IX Passive Lysis Buffer (Promega). Plates were incubated for 30 minutes at room temperature. Luminescence counts were read with a Victor2 (Perkin-Elmer) plate reader.
One hour prior to cell lysis for the dual luciferase assay, 10 μl: per well of WST1 reagent (Roche) was added to the 96-well plates. Plates were incubated for 1 hour at 37° C. and 5% CO2. Cell viability was measured by WST1 absorbance at 450 nm with a Victor2 (Perkin-Elmer) plate reader.
Biological activity of the compounds disclosed herein were assessed in the SRE.L luciferase reporter assay. PC-3 prostate cancer cells were co-transfected with 2 ng of the Gα12Q231L expression plasmid along with 50 ng of the SRE.L and 7 ng of the pRL-TK luciferase reporter plasmids, as described in the Materials and Methods section. Cells were treated with 0 (vehicle, DMSO alone), 1, 3, 10, 30, and 100 μM of a compound disclosed herein for 19 hrs after transfection before lysis. Luminescence was determined as described in the Materials and Methods section. Just before cell lysis, the viability of the cells was measured using the WST-1 cell proliferation reagent as described in the Materials and Methods section. Data are expressed as percentage of inhibition (DMSO alone=0%). The experiments were performed three separate times to achieve n=3 in triplicate.

Q: For O=C(Nc1ccc(Cl)cc1)C1CN(C(=O)c2cncc(-c3ccco3)c2)CC(F)(F)C1 (stereo not shown) [Example E-026, N-(4-chlorophenyl)-5,5-difluoro-1-{[5-(furan-2-yl)pyridin-3-yl]carbonyl}piperidine-3-carboxamide], which IC50 is on record?
A: The IC50 was 5.3 µM.

Q: Which IC50 does the source give for O=C(Nc1ccc(Cl)cc1)C1CC(O)CN(C(=O)c2cccc(-c3ccco3)c2)C1 (stereo not shown) [Example E-027, N-(4-chlorophenyl)-1-{[3-(furan-2-yl)phenyl]carbonyl}-5-hydroxypiperidine-3-carboxamide] here?
A: The IC50 was 12.5 µM.

Q: For CC1(C(=O)Nc2ccc(Cl)cc2)CCCN(C(=O)c2cccc(-c3ccco3)c2)C1 (stereo not shown) [Example E-028, N-(4-chlorophenyl)-1-(3-(furan-2-yl)benzoyl)-3-methylpiperidine-3-carboxamide], which IC50 is on record?
A: Its IC50 is 5 µM.

Q: Which IC50 does the source give for Cc1ccc(-c2cccc(C(=O)N3CCCC(C(=O)Nc4ccc(Cl)cc4)C3)c2)o1 (stereo not shown) [Example E-029, N-(4-chlorophenyl)-1-(3-(5-methylfuran-2-yl)benzoyl)piperidine-3-carboxamide] here?
A: The IC50 was 3.1 µM.

Q: How did the IC50 turn out when O=C(Nc1ccc(Cl)cc1)C1CCCN(C(=O)c2cccc(-n3cccn3)c2)C1 (stereo not shown) [Example E-030, 1-(3-(1H-pyrazol-1-yl)benzoyl)-N-(4-chlorophenyl)piperidine-3-carboxamide] was run?
A: The IC50 was 6.1 µM.

Q: For O=C(Nc1ccc(Cl)cc1)C1CCCN(C(=O)c2cccc(-c3cn[nH]c3)c2)C1 (stereo not shown) [Example E-031, 1-(3-(1H-pyrazol-4-yl)benzoyl)-N-(4-chlorophenyl)piperidine-3-carboxamide], which IC50 is on record?
A: Its IC50 is 3.4 µM.

Q: For O=C(Nc1ccc(Cl)cc1)C1CCCN(C(=O)c2cccc(-c3cc[nH]n3)c2)C1 (stereo not shown) [Example E-032, 1-(3-(1H-pyrazol-3-yl)benzoyl)-N-(4-chlorophenyl)piperidine-3-carboxamide], which IC50 is on record?
A: Its IC50 is 3.2 µM.

Q: How did the IC50 turn out when COc1ccc2nc(C(=O)N3CCCC(C(=O)Nc4ccc(Cl)cc4)C3)[nH]c2c1 (stereo not shown) [Example E-033, N-(4-chlorophenyl)-1-(6-methoxy-1H-benzo[d]imidazole-2-carbonyl)piperidine-3-carboxamide] was run?
A: The IC50 was 2.7 µM.

Q: How did the IC50 turn out when O=C(Nc1ccc(Cl)cc1)C1CCCN(C(=O)c2cc(-c3ccco3)ncn2)C1 (stereo not shown) [Example E-034, N-(4-chlorophenyl)-1-(6-(furan-2-yl)pyrimidine-4-carbonyl) piperidine-3-carboxamide] was run?
A: Its IC50 is > 100 µM.

Q: For Cn1c(C(=O)N2CCCC(C(=O)Nc3ccc(Cl)cc3)C2)nc2ccccc21 (stereo not shown) [Example E-035, N-(4-chlorophenyl)-1-(1-methyl-1H-benzo[d]imidazole-2-carbonyl)piperidine-3-carboxamide], which IC50 is on record?
A: The IC50 was 8 µM.

Q: How did the IC50 turn out when O=C(Nc1ccc(Cl)cc1)C1CCCN(C(=O)c2cnc(Br)s2)C1 (stereo not shown) [Example E-036, 1-(2-bromothiazole-5-carbonyl)-N-(4-chlorophenyl) piperidine-3-carboxamide] was run?
A: The IC50 was > 100 µM.

Q: Which IC50 does the source give for O=C(Nc1ccc(Cl)cc1)C1CCCN(C(=O)c2cnc(-c3ccco3)s2)C1 (stereo not shown) [Example E-037, N-(4-chlorophenyl)-1-(2-(furan-2-yl)thiazole-5-carbonyl)piperidine-3-carboxamide] here?
A: The IC50 was 18 µM.

Q: With O=C(Nc1ccc(Cl)cc1)C1CCCN(C(=O)c2csc(-c3ccco3)n2)C1 (stereo not shown) [Example E-038, N-(4-chlorophenyl)-1-(2-(furan-2-yl)thiazole-4-carbonyl) piperidine-3-carboxamide] as the molecule, how does the IC50 read?
A: The IC50 was 6.5 µM.

Q: O=C(Nc1ccc(Cl)cc1)C1CCCN(C(=O)c2cc(-c3ccco3)on2)C1 (stereo not shown) [Example E-039, N-(4-chlorophenyl)-1-(5-(furan-2-yl)isoxazole-3-carbonyl) piperidine-3-carboxamide] was tested. Which IC50 did it give?
A: Its IC50 is 43 µM.

Q: How did the IC50 turn out when O=C(Nc1ccc(Cl)cc1)C1CCCN(C(=O)c2cc(-c3ccco3)[nH]n2)C1 (stereo not shown) [Example E-040, N-(4-chlorophenyl)-1-(5-(furan-2-yl)-1H-pyrazole-3-carbonyl)piperidine-3-carboxamide] was run?
A: The IC50 was 8.1 µM.

Q: With O=C(Nc1ccc(Cl)cc1)C1CN(C(=O)c2cc(F)cc(-c3ccncc3)c2)CC(F)(F)C1 (stereo not shown) [Example E-041, N-(4-chlorophenyl)-5,5-difluoro-1-(3-fluoro-5-(pyridin-4-yl)benzoyl)piperidine-3-carboxamide] as the molecule, how does the IC50 read?
A: The IC50 was 0.83 µM.

Q: Which IC50 does the source give for O=C(Nc1ccc(Cl)cc1)C1CN(C(=O)c2cncc(-c3ccncc3)c2)CC(F)(F)C1 (stereo not shown) [Example E-042, 1-([3,4′-bipyridine]-5-carbonyl)-N-(4-chlorophenyl)-5,5-difluoropiperidine-3-carboxamide] here?
A: The IC50 was 0.91 µM.

Q: Which IC50 does the source give for NC1CC(C(=O)Nc2ccc(Cl)cc2)CN(C(=O)c2cccc(-c3ccco3)c2)C1 (stereo not shown) [Example E-043, 5-amino-N-(4-chlorophenyl)-1-(3-(furan-2-yl)benzoyl)piperidine-3-carboxamide] here?
A: The IC50 was 5 µM.

Q: How did the IC50 turn out when CNC1CC(C(=O)Nc2ccc(Cl)cc2)CN(C(=O)c2cccc(-c3ccco3)c2)C1 (stereo not shown) [Example E-044, N-(4-chlorophenyl)-1-(3-(furan-2-yl)benzoyl)-5-(methylamino)piperidine-3-carboxamide] was run?
A: The IC50 was 2.2 µM.

Q: With Cn1cncc1-c1cccc(C(=O)N2CC(C(=O)Nc3ccc(Cl)cc3)CC(F)(F)C2)c1 (stereo not shown) [Example E-047, N-(4-chlorophenyl)-5,5-difluoro-1-(3-(1-methyl-1H-imidazol-5-yl)benzoyl)piperidine-3-carboxamide] as the molecule, how does the IC50 read?
A: The IC50 was 0.31 µM.

Q: For O=C(Nc1ccc(Cl)cc1)C1CC(NCc2ccccc2)CN(C(=O)c2cccc(-c3ccco3)c2)C1 (stereo not shown) [Example E-048, 5-(benzylamino)-N-(4-chlorophenyl)-1-(3-(furan-2-yl)benzoyl)piperidine-3-carboxamide], which IC50 is on record?
A: Its IC50 is 0.047 µM.

Q: How did the IC50 turn out when CCC(=O)NC1CC(C(=O)Nc2ccc(Cl)cc2)CN(C(=O)c2cccc(-c3ccco3)c2)C1 (stereo not shown) [Example E-049, N-(4-chlorophenyl)-1-(3-(furan-2-yl)benzoyl)-5-propionamidopiperidine-3-carboxamide] was run?
A: The IC50 was 6.3 µM.

Q: With O=C(Nc1ccc(Cl)cc1)C1CN(C(=O)c2cccc(-c3ncccn3)c2)CC(F)(F)C1 (stereo not shown) [Example E-050, N-(4-chlorophenyl)-5,5-difluoro-1-(3-(pyrimidin-2-yl)benzoyl)piperidine-3-carboxamide] as the molecule, how does the IC50 read?
A: Its IC50 is 1.1 µM.

Q: Which IC50 does the source give for O=C(c1cccc(-c2cn[nH]c2)c1)N1CC(COc2ccc(Cl)cc2)CC(F)(F)C1 (stereo not shown) [Example E-051, (3-(1H-pyrazol-4-yl)phenyl)(5-((4-chlorophenoxy)methyl)-3,3-difluoropiperidin-1-yl)methanone] here?
A: Its IC50 is 3.3 µM.

Q: How did the IC50 turn out when O=C(Nc1ccc(Cl)cc1)C1CN(C(=O)c2cccc(-c3ccco3)c2)CCS1 (stereo not shown) [Example E-052, N-(4-chlorophenyl)-4-(3-(furan-2-yl)benzoyl) thiomorpholine-2-carboxamide] was run?
A: Its IC50 is 1.6 µM.

Q: For O=C(Nc1ccc(Cl)cc1)C1CN(C(=O)c2cccc(-c3ccco3)c2)CCS1(=O)=O (stereo not shown) [Example E-053, N-(4-chlorophenyl)-4-(3-(furan-2-yl)benzoyl) thiomorpholine-2-carboxamide 1,1-dioxide], which IC50 is on record?
A: The IC50 was 6.8 µM.

Q: How did the IC50 turn out when COC(=O)NC1CC(C(=O)Nc2ccc(Cl)cc2)CN(C(=O)c2cccc(-c3ccco3)c2)C1 (stereo not shown) [Example E-057, methyl (5-((4-chlorophenyl)carbamoyl)-1-(3-(furan-2-yl)benzoyl)piperidin-3-yl)carbamate] was run?
A: The IC50 was 22 µM.

Same assay, conditions: PC-3 cells transfected with Gα12Q231L, SRE.L and pRL-TK reporters; compound 19 hrs

Q: How did the IC50 turn out when O=C(NC1CC(C(=O)Nc2ccc(Cl)cc2)CN(C(=O)c2cccc(-c3ccco3)c2)C1)Oc1ccccc1 (stereo not shown) [Example E-056, phenyl (5-((4-chlorophenyl)carbamoyl)-1-(3-(furan-2-yl)benzoyl)piperidin-3-yl)carbamate] was run?
A: The IC50 was 38 µM.
